Reference: ChEMBL document CHEMBL5252580, “Ionization and lipophilicity in nonpolar media mimicking the cell membrane interior” (Bioorg Med Chem, 2023)

Key:
Type in all cases: physicochemical
[1] = Lipophilicity, log D of the compound in toluene/water system at pH 7 by shake-flask assay based HPLC analysis; conditions: buffer
[2] = Lipophilicity, log D of the compound in octanol/water system at pH 7 by shake-flask assay based HPLC analysis
[3] = Lipophilicity, log P of the compound in octanol/water system by potentiometric titration method
[4] = Lipophilicity, log D of the compound in octanol/water system at pH 7 by potentiometric titration method
[5] = Lipophilicity, log D of the compound in toluene/water system at pH 7 by potentiometric titration method; conditions: buffer
[6] = Lipophilicity, log P of the compound in toluene/water system by potentiometric titration method; conditions: buffer
[7] = Lipophilicity, log D of the compound assessed as retention index in nonpolar system in presence of 80% acetonitrile cosolvent by PLRP-S based RP-HPLC analysis
[8] = Acidic ionization constant, pKa of the compound in water by potentiometric titration method
[9] = Ionization constant, pKa of the compound in water in presence of 20 to 27.4% acetonitrile cosolvent by potentiometric titration method; conditions: water with 20 to 27.4% acetonitrile cosolvent
[10] = Basic ionization constant, pKa of the compound in 100% acetonitrile by UV-vis spectrophotometric titration method
[11] = Ionization constant, pKa of the compound in water in presence of 40 to 42.6% acetonitrile cosolvent by potentiometric titration method; conditions: water with 40 to 42.6% acetonitrile cosolvent
[12] = Basic ionization constant, pKa of the compound in water by potentiometric titration method
[13] = Ionization constant, pKa of the compound in water in presence of 30 to 35% acetonitrile cosolvent by potentiometric titration method; conditions: water with 30 to 35% acetonitrile cosolvent
[14] = Ionization constant, pKa of the compound in water by potentiometric titration method
[15] = Ionization constant, pKa of the compound in water in presence of 80% acetonitrile cosolvent by PLRP-S based RP-HPLC analysis; conditions: water with 80% acetonitrile cosolvent
[16] = 100% acetonitrile, read-out: pKa

Row | logD [1] | logD [2] | logP ([3]; read-out: logP) | logD [4] | logD [5] | logP [6] | Retention_index [7] | pKa [9] | pKa [11] | pKa [12] | pKa [13] | pKa [14] | pKa [15] | logP [3] | pKa [10] | Compound | pKa [8] | pKa [10, 16]
1 | < -2.5 | -1.32 | 3.2 | < 0 | < 0 | 0.3 |  |  |  |  |  |  |  |  |  | CCCCC(=O)N(Cc1ccc(-c2ccccc2-c2nnn[nH]2)cc1)[C@H](C(=O)O)C(C)C |  | 
2 | -1.77 | -0.11 | 0.1 | 0.1 |  |  | -0.65 | 4.13 | 4.01 | 4.36 | 4.07 |  |  |  |  | Nc1cccc(O)c1 [3-AMINOPHENOL] | 9.82 | 10.4
3 |  |  |  |  |  |  |  |  |  |  |  | 8.68 |  |  |  | NS(=O)(=O)c1cc2c(cc1Cl)NCNS2(=O)=O [HYDROCHLOROTHIAZIDE] |  | 
4 | -0.43 | 1.07 |  | 1.3 | 0.2 | 3.1 |  |  |  |  |  |  |  |  |  | CC(C)Cc1ccc(C(C)C(=O)O)cc1 (centres undefined) [IBUPROFEN] |  | 
5 | 0.89 | 0.92 |  | 1.1 | 0.8 | 1.4 | 0.22 | 7.88 | 7.74 |  | 7.78 | 7.83 | 5.9 | 3.3 | 16.62 | Cc1cccc(C)c1NC(=O)C1CCCCN1C (centres undefined) [MEPIVACAINE] |  | 

Row | Compound | logD [1] | logD [2] | logP ([3]; read-out: logP) | logD [4] | logD [5] | logP [6] | Retention_index [7] | pKa [9] | pKa [11] | pKa [12] | pKa [13] | pKa [14] | pKa [15] | logP [3] | pKa [10] | pKa [8] | pKa [10, 16]
6 | CCn1cc(C(=O)O)c(=O)c2ccc(C)nc21 [NALIDIXIC ACID] | -0.12 | 0.35 |  |  |  |  | -0.15 | 6.63 | 7.56 |  | 7.1 |  |  |  |  | 6.25 | 6.17
